In ChEMBL document CHEMBL3588836, “Development of Quinoline-2,4(1H,3H)-diones as Potent and Selective Ligands of the Cannabinoid Type 2 Receptor” (J Med Chem, 2015):

Tests used:
[1] = target: T1, Cannabinoid receptor 2 (Homo sapiens, UniProt P34972); assay: Agonist activity at CB2R (unknown origin) CHO cells stably expressing Galpha16 assessed as increase in intracellular calcium level by microplate reader based assay; type: functional, cell-based
[2] = target: T2, Cannabinoid receptor 1 (Homo sapiens, UniProt P21554); assay: Agonist activity at CB1R (unknown origin) CHO cells stably expressing Galpha16 assessed as increase in intracellular calcium level by microplate reader based assay; type: functional, cell-based
T2 sequence (P21554 whole entry): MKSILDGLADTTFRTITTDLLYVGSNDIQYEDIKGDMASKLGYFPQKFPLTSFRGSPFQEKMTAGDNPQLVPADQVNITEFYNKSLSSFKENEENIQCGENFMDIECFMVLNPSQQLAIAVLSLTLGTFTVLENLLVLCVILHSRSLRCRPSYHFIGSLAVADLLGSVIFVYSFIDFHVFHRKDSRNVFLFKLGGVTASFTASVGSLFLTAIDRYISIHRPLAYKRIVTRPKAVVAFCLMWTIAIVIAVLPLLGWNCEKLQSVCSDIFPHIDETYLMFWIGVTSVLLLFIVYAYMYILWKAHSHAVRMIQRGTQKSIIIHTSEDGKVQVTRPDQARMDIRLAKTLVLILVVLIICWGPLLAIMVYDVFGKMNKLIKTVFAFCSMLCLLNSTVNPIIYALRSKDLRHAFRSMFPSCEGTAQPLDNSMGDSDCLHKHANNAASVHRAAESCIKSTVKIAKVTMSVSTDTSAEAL

[3] = tested on: CHO; assay: Selectivity index, ratio of EC50 for CB1R (unknown origin) CHO cells stably expressing Galpha16 to EC50 for CB2R (unknown origin) CHO cells stably expressing Galpha16; type: cell-based; conditions: Homo sapiens
[4] = target: T1, Cannabinoid receptor 2; assay: Agonist activity at CB2R (unknown origin) CHO cells stably expressing Galpha16 assessed as increase in intracellular calcium level by microplate reader based assay relative to CP55940; type: functional, cell-based
[5] = target: T1, Cannabinoid receptor 2; assay: Antagonist activity against CB2R (unknown origin) CHO cells stably expressing Galpha16 assessed as inhibition of CP55940-induced increase in intracellular calcium level pre-treated 10 mins before CP55940 stimulation by microplate reader based assay; type: functional, cell-based
[6] = tested on: CHO; assay: Selectivity index, ratio of IC50 for CB1R (unknown origin) CHO cells stably expressing Galpha16 to IC50 for CB2R (unknown origin) CHO cells stably expressing Galpha16; type: cell-based; conditions: Homo sapiens
[7] = target: T2, Cannabinoid receptor 1; type: functional, cell-based, CHO
[8] = target: T1, Cannabinoid receptor 2; assay: Antagonist activity against CB2R (unknown origin) CHO cells stably expressing Galpha16 assessed as inhibition of CP55940-induced increase in intracellular calcium level pre-treated 10 mins before CP55940 stimulation by microplate reader based assay relative to […]; type: functional, cell-based

T1 sequence (P34972 whole entry): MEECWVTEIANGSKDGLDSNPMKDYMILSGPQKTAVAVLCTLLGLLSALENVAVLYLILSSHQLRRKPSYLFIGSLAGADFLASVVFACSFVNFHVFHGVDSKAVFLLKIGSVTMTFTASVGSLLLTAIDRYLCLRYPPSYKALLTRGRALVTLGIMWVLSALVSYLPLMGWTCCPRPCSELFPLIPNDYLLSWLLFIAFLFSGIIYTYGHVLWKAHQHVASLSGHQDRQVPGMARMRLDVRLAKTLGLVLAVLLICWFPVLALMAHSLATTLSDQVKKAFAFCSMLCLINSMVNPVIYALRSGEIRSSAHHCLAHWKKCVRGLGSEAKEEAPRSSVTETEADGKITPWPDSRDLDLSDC

Row | SMILES | EC50 ([1]; read-out: EC50) [nM] | EC50 [2] [nM] | Ratio EC50 [3] | Emax [4] [%] | EC50 ([1]; read-out: pEC50 (converted)) [nM] | IC50 [5] [nM] | Ratio IC50 [6] | IC50 [7] [nM] | Emax [8] [%]
1 | CCCCN1C(=O)/C(=C/NC2CCCCC2)C(=O)c2cccc(Cl)c21 | > 10000 | > 10000 | – | – | – | – | – | – | –
2 | CCCCN1C(=O)/C(=C/NCC2CC2)C(=O)c2cccc(C)c21 | 127 | > 10000 | > 78.7 | 43.4 | – | – | – | – | –
3 | CCCCN1C(=O)/C(=C/NCC(C)C)C(=O)c2cccc(C)c21 | 44.3 | > 10000 | > 226 | 99 | 44 | – | – | – | –
4 | CCCCCN1C(=O)/C(=C/NC23CC4CC(CC(C4)C2)C3)C(=O)c2cc(OC)cc(C)c21 | – | – | – | – | – | 45.3 | > 221 | > 10000 | 102
5 | CCCCN1C(=O)/C(=C/NC2CCCCC2)C(=O)c2cccc(OC)c21 | 1420 | > 10000 | > 7.04 | 86.1 | – | – | – | – | –
6 | CCCCN1C(=O)/C(=C/NC2CCCCC2)C(=O)c2cccc(CC)c21 | 797 | > 10000 | > 12.5 | 86.9 | 800 | – | – | – | –
7 | CCCCCN1C(=O)/C(=C/NC2CCCCC2)C(=O)c2cc(C(C)(C)C)ccc21 | – | – | – | – | – | > 10000 | – | > 10000 | –
8 | CCCCN1C(=O)/C(=C/NC2CCCC2)C(=O)c2cccc(C)c21 | 58 | > 10000 | > 172 | 129 | – | – | – | – | –
9 | CCCCCN1C(=O)/C(=C/NC2CCCCC2)C(=O)c2cc(Cl)ccc21 | – | – | – | – | – | 1510 | > 6.62 | > 10000 | 102
10 | CCCCN1C(=O)/C(=C/Nc2ccc(F)cc2)C(=O)c2cccc(C)c21 | > 10000 | > 10000 | – | – | – | – | – | – | –
11 | CCCCCN1C(=O)/C(=C/NC23CC4CC(CC(C4)C2)C3)C(=O)c2cc(Cl)ccc21 | – | – | – | – | – | 957 | > 10.4 | > 10000 | 100
12 | CCCCN1C(=O)/C(=C/NC2CCCCC2)C(=O)c2cc(OC)ccc21 | – | – | – | – | – | 4190 | > 2.39 | > 10000 | 99.7
13 | CCCCCN1C(=O)/C(=C/NC2CCCCC2)C(=O)c2cc(OC)cc(C)c21 | – | – | – | – | – | 93.3 | > 107 | > 10000 | 106
14 | CCCCCN1C(=O)/C(=C/NC2CCCCC2)C(=O)c2ccc(Cl)cc21 | – | – | – | – | – | > 10000 | – | > 10000 | –
15 | CCCN1C(=O)/C(=C/NC2CCCCC2)C(=O)c2cccc(C)c21 | 497 | > 10000 | > 20.1 | 68.2 | – | – | – | – | –
16 | CCCCN/C=C1\C(=O)c2cccc(C)c2N(CCCC)C1=O | 90.7 | > 10000 | > 110 | 64.7 | 91 | – | – | – | –
17 | CCCCN1C(=O)/C(=C/N[C@H]2CC[C@H](O)CC2)C(=O)c2cccc(C)c21 | > 10000 | > 10000 | – | – | – | – | – | – | –
18 | CCCCCN1C(=O)/C(=C/NC2CCCCC2)C(=O)c2cccc(OC)c21 | > 10000 | > 10000 | – | – | – | – | – | – | –
19 | CCCCN1C(=O)/C(=C/NN2CCCCC2)C(=O)c2cccc(C)c21 | 993 | > 10000 | > 10.1 | 58 | – | – | – | – | –
20 | CCCCN1C(=O)/C(=C/NC(C)(C)C)C(=O)c2cccc(C)c21 | 20 | > 10000 | > 500 | 135 | – | – | – | – | –
21 | CCCCN1C(=O)/C(=C/NCc2ccc(F)cc2)C(=O)c2cccc(C)c21 | > 10000 | > 10000 | – | – | – | – | – | – | –
22 | CCCCN1C(=O)/C(=C/NC2CCCCC2)C(=O)c2ccccc21 | 1580 | > 10000 | > 6.33 | 185 | – | – | – | – | –
23 | CCCCCN1C(=O)/C(=C/NC2CCCCC2)C(=O)c2cc(OC(F)(F)F)ccc21 | – | – | – | – | – | > 10000 | – | > 10000 | –
24 | CCCCCN1C(=O)/C(=C/NC2CCCCC2)C(=O)c2cc(OC)cc(OC)c21 | – | – | – | – | – | > 10000 | – | > 10000 | –
25 | CCCCCN1C(=O)/C(=C/NC2CCCCC2)C(=O)c2c(OC)cccc21 | > 10000 | > 10000 | – | – | – | – | – | – | –
26 | CCCCCN1C(=O)/C(=C/NC2CCCCC2)C(=O)c2cccc(CC)c21 | > 10000 | > 10000 | – | – | – | – | – | – | –
27 | CCCCCN1C(=O)/C(=C/NC2CCCCC2)C(=O)c2cc(Br)ccc21 | – | – | – | – | – | 1680 | > 5.95 | > 10000 | 96.8
28 | CCCCN1C(=O)/C(=C/NC(C)CCC)C(=O)c2cccc(C)c21 (stereo not drawn) | 116 | > 10000 | > 86.2 | 53.6 | – | – | – | – | –
29 | CCCCN1C(=O)/C(=C/NC(C)(C)CC)C(=O)c2cccc(C)c21 | 75.3 | 2020 | 26.8 | 158 | 75 | – | – | – | –
